According to patent US11419806B2, “Prebiotic oral care methods using a saccharide” (Colgate-Palmolive Company, priority 2013, dated 2022):

Assays:
Assay in all cases: Twenty-four hour optical density growth in BHI
Type in all cases: cell-based
[1] = tested on: Actinomyces naeslundii; conditions: A naeslundii
Experimental: (§1) The extent of growth of the tested bacteria in response to selected saccharides (myo-inositol, D-lactitol, D-turanose and N-acetyl-D-mannosamine) was investigated by setting up growth curves in a nutritionally rich medium (brain heart infusion broth (BHI), Oxoid), over 24 hours. Late exponential growth phase liquid cultures were prepared by transferring the respective bacterium from blood agar plates to BHI and overnight incubation at 37° C. in an anaerobic atmosphere for A. viscosus, V. parvula, F. nucleatum, P. gingivalis, P. intermedia, T. forsythia, A. naeslundii, and C. sputigena, and in a 5% CO2 environment for S. salivarius, S. sanguinis, S. mitis, A. actinomycetemcomitans, S. mutans, S. sobrinus and S. gordonii. Overnight cultures were transferred to BHI and adjusted to a concentration of 1×10^7 CFU/ml (colony forming units per ml) by measuring the optical density at 600 nm (OD600) (BioRad SmartSpec 3000). For each strain, 200 μl of the bacterial suspension was added to a 96-well plate containing 20 μl of the respective saccharides. Final concentrations of the saccharides were set to 5, 10, 20 and 25 μmol/ml. […] Plates were incubated as previously described.
(§2) For each combination of bacterium/saccharide, and for each of their respective controls (i.e. the particular bacterium in the nutritionally rich medium with no saccharide), the optical density was measured at 630 nm (OD630) at 0 h and 24 h (Thermo Scientific Multiskan Ascent). Additionally, the OD630 for combinations of bacterium/saccharides grown in a 5% CO2 environment were also measured every hour between 0 h and 9 h.
(§3) The experiment was carried out on three different days (thus providing 3 biological replicas) and on each day the experiment was carried out in quadruple (thus providing 4 technical replicas) for each combination of bacterium with saccharide and for each control. For each day and for each combination, the average (mean) of the values obtained (as detailed above) for the four technical replicas was calculated to provide a single value for each combination on each day. The values shown in Tables 5a,b to 6a,b, below, are the average (mean) of the three single values obtained for each combination of bacterium with saccharide.

[2] = tested on: Actinomyces viscosus; conditions: A viscosus
Experimental: as §1, §2, §3

[3] = tested on: Aggregatibacter actinomycetemcomitans; conditions: A actinomycetemcomitans
Experimental: as §1, §2, §3

[4] = tested on: Capnocytophaga sputigena; conditions: C sputigena
Experimental: as §1, §2, §3

[5] = tested on: Porphyromonas gingivalis; conditions: P gingivalis
Experimental: as §1, §2, §3

[6] = tested on: Prevotella intermedia; conditions: P intermedia
Experimental: as §1, §2, §3

[7] = tested on: Streptococcus gordonii; conditions: S gordonii
Experimental: as §1, §2, §3

[8] = tested on: Streptococcus mitis; conditions: S mitis
Experimental: as §1, §2, §3

[9] = tested on: Streptococcus mutans; conditions: S mutans
Experimental: as §1, §2, §3

[10] = tested on: Streptococcus salivarius; conditions: S salivarius
Experimental: as §1, §2, §3

[11] = tested on: Streptococcus sobrinus; conditions: S sobrinus
Experimental: as §1, §2, §3

[12] = tested on: Tannerella forsythia; conditions: T forsythia
Experimental: as §1, §2, §3

[13] = tested on: Veillonella parvula; conditions: V parvula
Experimental: as §1, §2, §3

CC(=O)N[C@H](C=O)[C@@H](O)[C@H](O)[C@H](O)CO [N-acetyl-D-mannosamine, 2-acetamido-2-deoxy-D-mannose]
extent of growth: maximal OD630 over 24 hr divided by maximal OD of control (control = 1) ([1]; 5 μmol/ml): 0.9820 | extent of growth: maximal OD630 over 24 hr divided by maximal OD of control (control = 1) ([1]; 10 μmol/ml): 0.8708 | extent of growth: maximal OD630 over 24 hr divided by maximal OD of control (control = 1) ([1]; 20 μmol/ml): 0.9716 | extent of growth: maximal OD630 over 24 hr divided by maximal OD of control (control = 1) ([1]; 25 μmol/ml): 0.8535 | extent of growth: maximal OD630 over 24 hr divided by maximal OD of control (control = 1) ([2]; 5 μmol/ml): 0.8017 | extent of growth: maximal OD630 over 24 hr divided by maximal OD of control (control = 1) ([2]; 10 μmol/ml): 0.8753 | extent of growth: maximal OD630 over 24 hr divided by maximal OD of control (control = 1) ([2]; 20 μmol/ml): 0.9225 | extent of growth: maximal OD630 over 24 hr divided by maximal OD of control (control = 1) ([2]; 25 μmol/ml): 0.8824 | extent of growth: maximal OD630 over 24 hr divided by maximal OD of control (control = 1) ([3]; 5 μmol/ml): 1.0637 | extent of growth: maximal OD630 over 24 hr divided by maximal OD of control (control = 1) ([3]; 10 μmol/ml): 0.9102 | extent of growth: maximal OD630 over 24 hr divided by maximal OD of control (control = 1) ([3]; 20 μmol/ml): 0.9405 | extent of growth: maximal OD630 over 24 hr divided by maximal OD of control (control = 1) ([3]; 25 μmol/ml): 0.8614 | extent of growth: maximal OD630 over 24 hr divided by maximal OD of control (control = 1) ([4]; 5 μmol/ml): 0.9620 | extent of growth: maximal OD630 over 24 hr divided by maximal OD of control (control = 1) ([4]; 10 μmol/ml): 0.9635 | extent of growth: maximal OD630 over 24 hr divided by maximal OD of control (control = 1) ([4]; 20 μmol/ml): 0.9576 | extent of growth: maximal OD630 over 24 hr divided by maximal OD of control (control = 1) ([4]; 25 μmol/ml): 0.9554 | extent of growth: maximal OD630 over 24 hr divided by maximal OD of control (control = 1) ([5]; 5 μmol/ml): 0.8020 | extent of growth: maximal OD630 over 24 hr divided by maximal OD of control (control = 1) ([5]; 10 μmol/ml): 0.8427 | extent of growth: maximal OD630 over 24 hr divided by maximal OD of control (control = 1) ([5]; 20 μmol/ml): 0.9137 | extent of growth: maximal OD630 over 24 hr divided by maximal OD of control (control = 1) ([5]; 25 μmol/ml): 0.9419 | extent of growth: maximal OD630 over 24 hr divided by maximal OD of control (control = 1) ([6]; 5 μmol/ml): 0.9530 | extent of growth: maximal OD630 over 24 hr divided by maximal OD of control (control = 1) ([6]; 10 μmol/ml): 1.0261 | extent of growth: maximal OD630 over 24 hr divided by maximal OD of control (control = 1) ([6]; 20 μmol/ml): 1.0229 | extent of growth: maximal OD630 over 24 hr divided by maximal OD of control (control = 1) ([6]; 25 μmol/ml): 1.0494 | extent of growth: maximal OD630 over 24 hr divided by maximal OD of control (control = 1) ([7]; 5 μmol/ml): 0.9930 | extent of growth: maximal OD630 over 24 hr divided by maximal OD of control (control = 1) ([7]; 10 μmol/ml): 1.0254 | extent of growth: maximal OD630 over 24 hr divided by maximal OD of control (control = 1) ([7]; 20 μmol/ml): 0.9827 | extent of growth: maximal OD630 over 24 hr divided by maximal OD of control (control = 1) ([7]; 25 μmol/ml): 1.0015 | extent of growth: maximal OD630 over 24 hr divided by maximal OD of control (control = 1) ([8]; 5 μmol/ml): 1.3409 | extent of growth: maximal OD630 over 24 hr divided by maximal OD of control (control = 1) ([8]; 10 μmol/ml): 1.3866 | extent of growth: maximal OD630 over 24 hr divided by maximal OD of control (control = 1) ([8]; 20 μmol/ml): 1.7155 | extent of growth: maximal OD630 over 24 hr divided by maximal OD of control (control = 1) ([8]; 25 μmol/ml): 1.7409 | extent of growth: maximal OD630 over 24 hr divided by maximal OD of control (control = 1) ([9]; 5 μmol/ml): 0.8669 | extent of growth: maximal OD630 over 24 hr divided by maximal OD of control (control = 1) ([9]; 10 μmol/ml): 0.8670 | extent of growth: maximal OD630 over 24 hr divided by maximal OD of control (control = 1) ([9]; 20 μmol/ml): 0.8300 | extent of growth: maximal OD630 over 24 hr divided by maximal OD of control (control = 1) ([9]; 25 μmol/ml): 0.8283 | extent of growth: maximal OD630 over 24 hr divided by maximal OD of control (control = 1) ([10]; 5 μmol/ml): 0.8639 | extent of growth: maximal OD630 over 24 hr divided by maximal OD of control (control = 1) ([10]; 10 μmol/ml): 0.8849 | extent of growth: maximal OD630 over 24 hr divided by maximal OD of control (control = 1) ([10]; 20 μmol/ml): 0.8460 | extent of growth: maximal OD630 over 24 hr divided by maximal OD of control (control = 1) ([10]; 25 μmol/ml): 0.9251 | extent of growth: maximal OD630 over 24 hr divided by maximal OD of control (control = 1) ([11]; 5 μmol/ml): 0.9307 | extent of growth: maximal OD630 over 24 hr divided by maximal OD of control (control = 1) ([11]; 10 μmol/ml): 0.7794 | extent of growth: maximal OD630 over 24 hr divided by maximal OD of control (control = 1) ([11]; 20 μmol/ml): 0.7737 | extent of growth: maximal OD630 over 24 hr divided by maximal OD of control (control = 1) ([11]; 25 μmol/ml): 0.7857 | extent of growth: maximal OD630 over 24 hr divided by maximal OD of control (control = 1) ([12]; 5 μmol/ml): 0.9742 | extent of growth: maximal OD630 over 24 hr divided by maximal OD of control (control = 1) ([12]; 10 μmol/ml): 0.9715 | extent of growth: maximal OD630 over 24 hr divided by maximal OD of control (control = 1) ([12]; 20 μmol/ml): 0.9706 | extent of growth: maximal OD630 over 24 hr divided by maximal OD of control (control = 1) ([12]; 25 μmol/ml): 0.9451 | extent of growth: maximal OD630 over 24 hr divided by maximal OD of control (control = 1) ([13]; 5 μmol/ml): 1.0227 | extent of growth: maximal OD630 over 24 hr divided by maximal OD of control (control = 1) ([13]; 10 μmol/ml): 1.0174 | extent of growth: maximal OD630 over 24 hr divided by maximal OD of control (control = 1) ([13]; 20 μmol/ml): 1.0466 | extent of growth: maximal OD630 over 24 hr divided by maximal OD of control (control = 1) ([13]; 25 μmol/ml): 1.0213
